Results on 1 compound are retold here after US10058540B2, “2-amino-5,5-difluoro-6-(fluoromethyl)-6-phenyl-3,4,5,6-tetrahydropyridines as BACE1 inhibitors” (H. Lundbeck A/S, priority 2014, dated 2018).

The target of data set [1] is T1, BACE1 (Homo sapiens (Human), UniProt P56817). The data set is described as follows: BACE1 efficacy assay (FRET-based, commercial BACE1 kit). Format: biochemical. The note with it: 10 μM test compound. On the procedure: The efficacy assay was performed as a FRET-based assay using a commercially available BACE1 kit (Life Technologies, P2985). 2 μl test compound at 10 μM (final concentration) and 15 μl BACE1 enzyme from the kit (final concentration 3 nM) were preincubated for 15 minutes at room temperature before addition of 15 μl of substrate from the kit (250 nM final concentration) and incubated for additional 90 minutes at room temperature. The assay plate was subsequently read in a Pherastar (Ex540/Em590). The enzyme activity observed in presence of test compound were normalized to the enzyme activity observed in presence of buffer and 10 μM (final concentration) of the high affinity BACE1 reference inhibitor (S)-6-[3-Chloro-5-(5-prop-1-ynyl-pyridin-3-yl)-thiophen-2-yl]-2-imino-3,6-dimethyl-tetra-hydropyrimidin-4-one, respectively. The efficacy of the test compounds was evaluated at 10 μM (final concentration) and defined as the percent inhibition of the enzyme activity using the equation % inhibition=100%−normalized enzyme activity in percent.

The subject of data set [2] is Aβ40. The data set is described as follows: Assessment of Aβ peptide levels in rat brain and plasma following BACE1 inhibition (Aβ40 ELISA). The note with it: 3 hours post dose, vs vehicle. The data set is classed as in vivo. On the procedure:
Assessment of Aβ Peptide Levels in Rat Brain and Plasma Following BACE1 Inhibition. Animals.
Young adult Male Sprague Dawley rats of approximately 250 g weight were purchased from Charles River and received 0-30 mg/kg of vehicle (10% HP betaCD+1M MeSO4, pH 2.5) or test compounds (dissolved in vehicle) only by oral gavage (p.o). The compounds are dosed at a volume of […]. Cohorts of 5-10 animals were established for each treatment condition.
At T=180 minutes after initial dosing the animals were stunned and decapitated with a guillotine. Trunk-blood was sampled in EDTA coated tubes after decapitation of the animal. The blood was centrifuged at 2200 G at 4° C. for 15 minutes and the plasma was collected and frozen at −80° C. The blood was aliquoted for Aβ ELISA and DMPK analysis. Immediately following sacrifice, the brain was extracted and split into 2 halves. The right hemibrains were snap frozen on dry ice and stored at −80° C. The left half was dissected; with the front forebrain taken for Aβ ELISA and the remainder used for DMPK analysis. These samples were also snap frozen on dry ice and stored at −80° C. until use for analysis.
The cortex samples were thawed slightly on wet ice before they were homogenized with a small volume dispersing instrument (T10 basic ULTRA-TURRAX®) which was set at speed 5 for approximately 5-7 sec. The tissue was processed in a 10 times volume of the weight, for example 100 mg of tissue was homogenized in 1000 μL of Homogenization buffer. Homogenization buffer: 50 ml Milli Q water+[…]+0.2% Diethylamin (DEA)+1 tablet of Complete Protease inhibitor cocktail+1 nM 4-(2-aminoethyl)benzenesulfonyl fluoride hydrochloride irreversible serine protease inhibitor (AEBSF).
After homogenization 450 μL aliquots of the samples are collected into a 1.5 ml Eppendorf tube and placed on wet ice, 0.5% NP-40 (50 ul) was added to all samples and then they were incubated on ice for 30 min. After which all samples were sonicated using an Ultrasonic homogenizer with 20 kHz homogeneous sound (SONOPLUS HD2070, Bandelin Electronic) 10 pulse set at 12-13% power to extract all the Aβ species. The samples were then centrifuged (Ole Dich 157 MPRF Micro centrifuge) at 20000 G for 20 minutes at 4° C. After centrifugation 285 μL of the supernatant was pipetted into 600 μL microtubes tubes and neutralized with 15 μL of 1M Tris-HCL buffer.
WAKO 294-62501 Human/Rat Abeta amyloid (40) kit was used for all ELISA analyses. 30 μL plasma samples or 30 μL of the cortex supernatants generated as described above were placed in 600 μL microtubes tubes on wet ice. To this 30 μL of 8M Urea (AppliChem A1049, 9025) are added to generate a 2-fold dilution. Both plasma and cortex supernatants are incubated on ice for 30 min. Standard rows were prepared from the standard peptide stock provided in the kit and standard diluent containing 1.6M Urea (200 μL 8M Urea+800 μL of standard diluent) and 0.8M Urea (400 μL 8M Urea+3600 μL Standard diluent). A serial 2-fold dilution of Aβ40 from 100 pmol/ml to 0 pmol/L was prepared for the assay.
After incubation with urea, all samples were further diluted by addition of 5 times standard diluent from the Kit. This was done by adding 240 μL Standard Diluent to 60 μL sample/urea mixture, which was then mixed well. 100 μL of each diluted sample was pipetted into designated wells of the ELISA plate in duplicates. The plate was then covered and incubated overnight at 4° C. The following day, the ELISA kit was brought to room temperature before use. The incubated plate was washed 5 times with the 20× washing solution diluted in Milli Q water. 100 μL HRP-conjugate was applied to each well, and the plate was covered and incubates at 4° C. for 1 hr. The wash was repeated again for 5 times. 100 μL 3,3′,5,5′-Tetramethylbenzidine (TMB) solution was applied to each well and the plate was covered and incubated in the dark at room temperature for 30 minutes. […]
For orientation: ELISA stands for enzyme-linked immunosorbent assay.

The subject of data set [3] is P-gp (MDR1). The data set is described as follows: MDCK-MDR1 assay (permeability / Pgp efflux). Format: in vitro ADME. The following applies: dog, Papp BA/Papp AB, Pgp substrate when ≥2. Here is the method: The permeability of the test compounds was assessed in MDCK-MDR1 cells that were cultured to confluency (4-6 days) in a 96 transwell plate. Test compounds were diluted with the transport buffer (HBSS+1% BSA) to a concentration of 0.5 μM and applied to the apical or basolateral side of the cell monolayer. Permeation of the test compounds from A to B direction or B to A direction was determined in triplicate over a 60-minute incubation time at 37° C. and 5% CO2 with a relative humidity of 95%. Test compounds were quantified by LC-MS/MS analysis based on the peaks area ratios of analyte/IS in both the receiver and donor wells of the transwell plate.
The apparent permeability coefficient Papp (cm/s) was calculated using the equation: Papp=(dCr/dt)×Vr/(A×C0) Where dCr/dt is the cumulative concentration of compound in the receiver chamber as a function of time (μM/s); Vr is the solution volume in the receiver chamber (0.05 mL on the apical side; 0.25 mL on the basolateral side); A is the surface area for the transport, i.e. 0.0804 cm^2 for the area of the monolayer; C0 is the initial concentration in the donor chamber (μM).
Compounds are classified Pgp substrates when efflux ratio (Papp BA/Papp AB) is ≥2.

The target of data set [4] is T1, BACE1. The data set is described as follows: BACE1 binding assay (SPA-based, radioligand). The following applies: pH 4.5, Ki=IC50/(1+L/Kd). Here is the method:
The binding assay was performed as SPA-based assay using a biotinylated form of human BACE1 recombinantly expressed and subsequently purified from Freestyle HEK293 cells. The binding assay was run in a 50 mM sodium acetate buffer, pH 4.5 containing 50 mM NaCl and 0.03% Tween-20 in white clear bottom 384 plates (Corning #3653). 10 nM (final concentration) radioligand ([^3H]-N-((1S,2R)-1-benzyl-3-cyclopropylamino-2-hydroxy-propyl)-5-(methanesulfonyl-methyl-amino)-N-((R)-1-phenyl-ethyl)-isophthalamide) (TRQ11569 purchased from GE Healthcare) was mixed with test compound at a given concentration, 6 nM (final concentration) human BACE1 and 25 μg Streptavidin coated PVT core SPA beads (RPNQ0007, GE Healthcare Life Sciences) in a total volume of 40 μl. Several concentrations of each test compound were tested in the assay for IC50 determination. The plates were incubated for one hour at room temperature and counted in a Wallac Trilux counter. Total and non-specific binding were determined using buffer and 1 μM (final concentration) of the high affinity BACE1 reference inhibitor (S)-6-[3-chloro-5-(5-prop-1-ynyl-pyridin-3-yl)-thiophen-2-yl]-2-imino-3,6-dimethyl-tetrahydro-pyrimidin-4-one, respectively. For each test compound, a IC50 value (the concentration mediating 50% inhibition of the specific binding of the radioligand) was determined from concentration-response curve and used to calculate the Ki from the equation Ki=IC50/(1+L/Kd), where L and Kd are the final concentration of the radioligand used in the assay and the dissociation constant of the radioligand, respectively. The Kd of the radioligand was determined from saturation binding experiments.

T1 sequence (P56817 46-501): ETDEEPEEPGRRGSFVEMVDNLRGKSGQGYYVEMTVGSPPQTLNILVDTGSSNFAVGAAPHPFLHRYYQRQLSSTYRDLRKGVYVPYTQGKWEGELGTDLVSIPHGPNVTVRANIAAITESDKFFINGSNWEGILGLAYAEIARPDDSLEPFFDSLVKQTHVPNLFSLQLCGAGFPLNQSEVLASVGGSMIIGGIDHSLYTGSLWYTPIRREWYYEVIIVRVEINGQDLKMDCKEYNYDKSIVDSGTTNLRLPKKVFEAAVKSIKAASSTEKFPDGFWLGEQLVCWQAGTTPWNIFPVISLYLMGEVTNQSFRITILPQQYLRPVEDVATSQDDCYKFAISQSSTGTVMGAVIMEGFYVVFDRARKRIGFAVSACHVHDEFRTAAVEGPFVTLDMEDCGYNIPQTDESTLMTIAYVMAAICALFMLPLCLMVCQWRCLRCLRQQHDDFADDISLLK

With `COc1ccc(C(=O)Nc2cc(F)c(F)c([C@@]3(CF)N=C(N)CCC3(F)F)c2)nc1` [Compound 15, (S)-N-(3-(6-amino-3,3-difluoro-2-(fluoromethyl)-2,3,4,5-tetrahydropyridin-2-yl)-4,5-difluorophenyl)-5-methoxypicolinamide], in data set [1], the inhibition at 10 µM is 106%. Besides, the Aβ40 reduction in data set [2] (rat brain, 10 mg/kg p.o.) worked out at 33%; in data set [2] (rat brain, 30 mg/kg p.o.), 43%; in data set [2] (rat plasma, 10 mg/kg p.o.) it was 34%; in data set [2] (rat plasma, 30 mg/kg p.o.), 34%. Also, the efflux ratio at 60 min, 0.5 μM in data set [3] was 1.09. Besides, in data set [4], the Ki is 9 nM.

Broadly, the inhibition is the relative decrease from the control value, in per cent. By efflux ratio is commonly meant a quotient of directional permeabilities that is used to spot active efflux. The term Ki denotes a measure of affinity in units of concentration, obtained from inhibition or displacement.
